Experimental data: paper PMC11173677, “Identification and Evaluation of Olive Phenolics in the Context of Amine Oxidase Enzyme Inhibition and Depression: In Silico Modelling and In Vitro Validation” (Molecules, 2024)

Experiments:
MAO-B = test system: T1, MAO-B; test: MAO-B activity assay in corticosteroid-stimulated BJ cells; assay type: cell-based, human; settings: then 50 μM compound 24 h
T1 construct: endogenous in cells; host or cells: BJ human foreskin fibroblasts stimulated with DEX or HC
Method: (§1) The BJ cells were subsequently incubated with 10 μM HC or 100 μM DEX to stimulate MAO expression. […] The untreated BJ cells received normal growth medium. The cells were collected, homogenised, and analysed through Western blotting where the expression of MAO-A/B was determined through immunodetection of protein subtypes.
(§2) Activity assays were commercially sourced from BioVision (Abcam, BioVision ab241031, Waltham, MA, USA) and were performed according to manufacturer’s instructions. The treatment groups were plated in duplicate on a black, flat 96-well microplate. The cells were homogenised in assay buffer using a microtube mixer at 4 °C and centrifuged at 10,000× g for 10 min. A Bradford assay was performed to determine the total protein concentration within each cell pellet (200 μg/well for BJ cells, 40 μg/well for hESC-derived neurons). Approximately 40 μL of supernatant was loaded into wells along with 10 μL of either […], or assay buffer for total MAO activity. A H2O2 standard was pipetted as supplied and 50 μL of reaction mix was pipetted into all wells. Using a CLARIOstar Plus Microplate Reader, (BMG Labtech, Ortenberg, Germany), fluorescence was measured kinetically at 25 °C for 60 min with Ex/Em = 535/587 nm.

H3K4 mono-methylation = H3K4 mono-methylation in BJ cells (Western blotting); assay type: cell-based, human; settings: 50 μM, 48 h, compared to untreated cells; effects more pronounced with DEX
Method: As described in the Supplementary Information, nuclear proteins extracted from the BJ cultures were directly assayed for LSD1 activity (Epigentek P-3076, Farmingdale, NY, USA). Fluorescence was read on a CLARIOstar Microplate Reader (BMG Labtech, Ortenberg, Germany) at Ex/Em = 530/590 nm (Figure S4). Histone proteins were extracted from the treated cultures and were analysed through Western blotting. The mono-methylation status of lysine on histone 3 (H3K4) was determined via immunodetection (Table S6).
100µL of Nuclear Extraction Buffer containing 0.2µL 1M DTT and 0.4µL PIC was then added to the remaining nuclei-containing pellets. Full resuspension was achieved through multiple rounds of vigorous vortexing and ice incubations (to maintain protein integrity). Once the entire pellet was visibly resuspended in NEB, tubes were centrifuged at 16,000g for 10 minutes. The resulting supernatant containing the nuclear extract fraction was transferred to clean 0.5mL tubes and stored at -80°C.
Acid extraction of histone proteins
Cells were washed in 10mL of pre-chilled PBS (1X) and detached from flask surface via mechanical disruption using a cell scraper. Cell solution was then transferred into a 15mL tube and centrifuged at 150g for 10 minutes. Supernatant was then discarded and the remaining cell pellet resuspended in 0.5mL PBS (1X) and transferred into a 1.5mL microcentrifuge tube. Cells were then centrifuged at 9400g for 20 seconds, after which the supernatant was removed and discarded. The remaining pellet was then briefly resuspended in 600µL of acid extraction lysis buffer (10mM KCl, 10mM HEPES, […]) containing cOmplete™ Mini Protease Inhibitor Cocktail (Sigma-Aldrich, Roche 11836153001, MO USA) and 0.3µL 1M DTT. This will cause cells to pre-swell, resulting in a reduced amount of PBS (1X) remaining in the microcentrifuge tube that may deter maximal cell lysis capacity. Cells were then centrifuged at 9400g for 20 seconds with the resultant supernatant aspirated and discarded. […]

total MAO [1] = test: Total MAO activity assay in corticosteroid-stimulated BJ cells; assay type: cell-based, human; settings: then 50 μM compound 24 h
Method: as §1, §2

LSD1 = test system: T2, LSD1; test: LSD1 activity in nuclear extracts of BJ cells stimulated with DEX; assay type: cell-based, human; settings: DEX 50 μM 72 h, then TCP 5 μM or OLP, HT, HTA 50 μM for 48 h
T2 construct: nuclear proteins extracted from the BJ cultures were directly assayed for LSD1 activity; endogenous in cells; host or cells: BJ human foreskin fibroblasts (nuclear extract, DEX-stimulated)
Method: Histone demethylase LSD1 activity assay
4µL of nuclear extracts containing 5µg protein was added to designated strip wells with stably
captured LSD1 substrate (H3K4me2), followed by an additional 26µL of H3K4me2 (HG3)
substrate diluted in assay buffer (HG2). In no enzyme control wells, the 4µL of nuclear
extracts was replaced with 4µL of assay buffer. Blank wells contained 30µL of assay buffer.
A standard curve was generated by adding 1µL of standard (HG4) at incrementally increasing
concentrations (0.1-10ng/µL) to 29µL of assay buffer in designated standard wells. After all
wells were loaded appropriately, the assay plate was incubated away from light at room
temperature for 60 minutes. Following incubation, contents were aspirated and wells were
washed three times with 150µL of wash buffer (HG1). 50µL of capture antibody (HG5)
diluted at a 1:1000 ratio was then added to all wells before incubating at room temperature
for 60 minutes on a rotating platform. Well contents were then aspirated and washed four
times with 150µL of wash buffer. 50µL of detection antibody (HG6) diluted at a 1:1000 ration
was then added to each well. Assay plate was then incubated for a final time at room
temperature for 30 minutes. Well contents were aspirated again, followed by six washes with
150µL wash buffer. 50µL of fluoro-developer (HG7) was then added into each well and
allowed to develop away from light for 1-5 minutes. Fluorescence was then read on a
CLARIOstar Microplate Reader (BMG Labtech, Ortenberg Germany) at Ex/Em =

MAO-A [2] = test system: T3, MAO-A; test: MAO-A activity assay in hESC-derived neurons stimulated with ATRA; assay type: cell-based, human; settings: 1 μM ATRA 24 h, then TCP 5 μM, OLC 50 μM or OLP 50 μM for 24 h
T3 construct: endogenous in cells; host or cells: BJ human foreskin fibroblasts stimulated with DEX or HC
Method: (§3) An in vitro model of MDD was designed for stem cell-derived neuronal cells through incubation of 1 μM all-trans retinoic acid (Sigma-Aldrich PHR1187, St. Louis, MO, USA). All cell treatments were conducted in duplicate and replicated using independently differentiating neuronal plates.
as §2

total MAO [3] = test: Total MAO activity assay in hESC-derived neurons stimulated with ATRA; assay type: cell-based, human; settings: 1 μM ATRA 24 h, then TCP 5 μM, OLC 50 μM or OLP 50 μM for 24 h
Method: as §3, §2

MAO-A [4] = test system: T3, MAO-A; test: MAO-A activity assay in corticosteroid-stimulated BJ cells; assay type: cell-based, human; settings: then 50 μM compound 24 h
Method: as §1, §2

purified LSD1 = purified LSD1 (Homo sapiens, UniProt O60341); test: LSD1 direct screening assay (Epigentek inhibitory screening kit); assay type: biochemical; settings: direct incubation with purified LSD1, Epigentek kit; read-out: IC50, inhibition of LSD1
Method: Fluorescence was measured using a CLARIOstar Plus Microplate Reader (BMG Labtech, Ortenberg, Germany) at excitation and emission wavelengths of 530 nm and 590 nm, respectively (Ex/Em = 530/590 nm).

**Q.** What does the source list for `COC(=O)[C@H](O)CC(=O)OCCc1ccc(O)c(O)c1` [OLP, oleohydroxypyretol]?
**A.** MAO-B activity in BJ cells (MAO-B; 10 μM HC 5 days): downregulate; MAO-B activity in BJ cells (MAO-B; 100 μM DEX 7 days): downregulate; baseline levels of H3K4 mono-methylation in BJ cells (H3K4 mono-methylation): increased; total MAO activity in BJ cells (total MAO [1]; 10 μM HC 5 days): downregulate; total MAO activity in BJ cells (total MAO [1]; 100 μM DEX 7 days): downregulate; LSD1 activity in BJ cultures stimulated with DEX (LSD1): significant reduction; MAO-A activity in hESC-derived neurons (MAO-A [2]): significantly reduced; total MAO activity in hESC-derived neurons (total MAO [3]): significantly reduced; MAO-A activity in BJ cells (MAO-A [4]; 10 μM HC 5 days): downregulate; MAO-A activity in BJ cells (MAO-A [4]; 100 μM DEX 7 days): downregulate; IC50 (purified LSD1): 800 nM
